Patent US20250115576A1, “THERAPEUTIC COMPOUNDS AND METHODS OF USE THEREOF” (Genentech, Inc., priority 2018, published 2025)
pIC50: −log10 of the molar value. Counter-ions that a name gives are not always drawn.

Biological target: hNav1.7 (Homo sapiens (Human), UniProt Q15858)
Experiment: Patch voltage clamp electrophysiology (EP), Syncropatch 384PE, CHO cells stably expressing Nav1.7
Assay type: cell-based
Conditions: holding potential −50 mV, 7.5 min compound incubation, read-out: EP_SP hNav1.7 EVO IC50
Source text: Example 64c. Electrophysiological Assay (EP) (In Vitro Assay)
Patch voltage clamp electrophysiology allows for the direct measurement and quantification of block of voltage-gated sodium channels (NaV's), and allows the determination of the time- and voltage-dependence of block which has been interpreted as differential binding to the resting, open, and inactivated states of the sodium channel (Hille, B., Journal of General Physiology (1977), 69: 497-515).
The following voltage clamp electrophysiology studies are performed on representative compounds using cells heterologously expressing Nav1.7 or Nav1.5 channels. cDNAs for Nav1.7 (NM_002977) and Nav1.5 (AC137587) are stably expressed in Chinese Hamstr Ovary (CHO) cells and CHL (Chinese Hamster Lung) cells respectively. Sodium currents are measured in the whole-cell configuration using Syncropatch 384PE (Nanlon Technologies, Germany). 1NPC®-384 chips with custom medium resistance and single hole mode are used. Internal solution consists of (in mM): […], 10 CsCl, 20 EGTA, and 10 Hepes (pH adjusted to 7.2); and external solution contains (in mM): 60 NMDG, 80 NaCl, 4 KCl, 1 MgCl2, 2 CaCl2, 2 D-Glucose monohydrate, 10 Hepes (pH adjusted to 7.4 with NaOH).
After system flushing, testing compounds are dissolved in external solution containing 0.1% Pluronic F-127. The chip is moved into the measuring head and the instrument primes the chip with external and internal solutions. 10 μl cells are added to the chip from a cell hotel, and a negative pressure of −50 mBar is applied to form a seal. Following treatment with seal enhancer solution and wash-off with external solution, negative pressure of −250 mbar is applied for 1 second to achieve the whole-cell configuration, followed by three washing steps in external solution. 20 μl of compounds is added to 40 μl in each well (1:3 dilution of compounds), and after mixing, 20 μl is removed so the volume is retained at 40 ul. After approximately 13 minutes recordings, 20 μl/well of 2 uM TTX, or 333 uM Tetracaine (for […]) is added to achieve full block.
For voltage protocol, an holding potential of −50 mV is applied during the whole experiment. A depolarizing step is applied to −10 mV for 10 ms, followed by a hyperpolarization step to −150 mV for 20 ms to allow channel recovery from inactivation. A second depolarizing step is applied from −150 mV to −10 mV for 10 ms, where currents are measured to derive blocking effects of compounds. Inhibition is determined based on 7.5 min of compound incubation.

hNav1.7, sequence (Q15858 other isoform, or with tags, fused parts or gaps): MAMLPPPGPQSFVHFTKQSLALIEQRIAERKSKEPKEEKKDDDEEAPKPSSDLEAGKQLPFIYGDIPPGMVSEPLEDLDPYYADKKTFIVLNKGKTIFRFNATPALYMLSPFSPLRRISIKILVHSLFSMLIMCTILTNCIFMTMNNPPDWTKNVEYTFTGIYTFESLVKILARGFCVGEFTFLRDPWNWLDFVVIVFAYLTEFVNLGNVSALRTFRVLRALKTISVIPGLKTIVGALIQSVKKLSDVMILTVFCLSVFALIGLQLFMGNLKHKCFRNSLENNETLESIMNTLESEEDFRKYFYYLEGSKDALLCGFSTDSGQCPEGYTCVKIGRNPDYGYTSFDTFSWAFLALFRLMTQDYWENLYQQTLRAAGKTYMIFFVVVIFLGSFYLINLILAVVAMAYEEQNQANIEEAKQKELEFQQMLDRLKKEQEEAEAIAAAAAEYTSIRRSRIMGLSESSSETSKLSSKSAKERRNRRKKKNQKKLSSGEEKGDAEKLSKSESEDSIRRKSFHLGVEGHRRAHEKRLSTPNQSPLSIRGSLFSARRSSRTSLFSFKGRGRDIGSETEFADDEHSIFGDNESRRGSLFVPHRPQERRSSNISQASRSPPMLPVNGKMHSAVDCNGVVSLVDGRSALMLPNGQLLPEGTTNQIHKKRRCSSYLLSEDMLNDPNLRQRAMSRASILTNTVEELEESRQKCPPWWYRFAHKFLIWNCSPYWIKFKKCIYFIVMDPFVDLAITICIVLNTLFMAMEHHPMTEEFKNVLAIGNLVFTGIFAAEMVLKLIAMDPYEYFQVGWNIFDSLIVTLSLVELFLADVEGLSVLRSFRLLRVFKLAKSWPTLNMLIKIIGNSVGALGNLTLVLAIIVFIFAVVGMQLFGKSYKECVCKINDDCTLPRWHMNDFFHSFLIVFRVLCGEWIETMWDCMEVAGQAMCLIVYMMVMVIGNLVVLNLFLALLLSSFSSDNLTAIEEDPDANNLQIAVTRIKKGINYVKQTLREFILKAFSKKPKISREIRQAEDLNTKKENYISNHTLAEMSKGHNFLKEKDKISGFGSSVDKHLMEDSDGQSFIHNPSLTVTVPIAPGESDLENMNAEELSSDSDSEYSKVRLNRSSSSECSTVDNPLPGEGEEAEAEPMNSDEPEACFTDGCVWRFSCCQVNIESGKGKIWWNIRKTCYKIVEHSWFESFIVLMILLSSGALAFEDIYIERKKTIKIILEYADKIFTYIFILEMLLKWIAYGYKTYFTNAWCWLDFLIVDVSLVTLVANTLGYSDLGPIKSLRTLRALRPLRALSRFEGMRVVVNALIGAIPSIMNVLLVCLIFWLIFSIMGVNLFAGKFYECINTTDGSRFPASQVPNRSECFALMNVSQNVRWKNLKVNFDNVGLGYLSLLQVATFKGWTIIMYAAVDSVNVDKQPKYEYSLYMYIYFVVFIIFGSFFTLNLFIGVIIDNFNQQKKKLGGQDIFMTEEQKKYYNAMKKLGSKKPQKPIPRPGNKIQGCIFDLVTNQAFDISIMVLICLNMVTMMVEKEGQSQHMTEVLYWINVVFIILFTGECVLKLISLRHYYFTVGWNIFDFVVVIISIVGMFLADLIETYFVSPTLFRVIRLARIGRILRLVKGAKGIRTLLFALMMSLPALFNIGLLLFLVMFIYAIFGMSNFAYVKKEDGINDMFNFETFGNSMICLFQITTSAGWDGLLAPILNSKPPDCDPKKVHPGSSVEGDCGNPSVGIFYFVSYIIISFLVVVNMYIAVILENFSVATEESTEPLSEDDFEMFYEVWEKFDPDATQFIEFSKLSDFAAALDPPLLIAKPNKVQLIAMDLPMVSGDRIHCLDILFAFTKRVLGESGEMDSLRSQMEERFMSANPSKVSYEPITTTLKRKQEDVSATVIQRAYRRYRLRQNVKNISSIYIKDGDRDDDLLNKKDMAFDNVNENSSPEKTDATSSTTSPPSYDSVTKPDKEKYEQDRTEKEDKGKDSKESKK

Point of comparison: Cc1nc(O[C@H]2CC[C@H](c3cccc(OC(F)F)c3)C[C@@H]2N(C)C)ccc1S(=O)(=O)Nc1ccncn1 [Example 52, 6-(((1S,2S,4S)-4-(3-(difluoromethoxy)phenyl)-2-(dimethylamino)cyclohexyl)oxy)-2-methyl-N-(pyrimidin-4-yl)pyridine-3-sulfonamide], pIC50 8.74. Against it:
- CN(C)[C@H]1C[C@@H](c2cccc(C(F)(F)F)c2)CC[C@@H]1Oc1ccc(S(=O)(=O)Nc2ccncn2)cn1 [Example 1, 6-(((1S,2S,4S)-2-(Dimethylamino)-4-(3-(trifluoromethyl)phenyl)cyclohexyl)oxy)-N-(pyrimidin-4-yl)pyridine-3-sulfonamide] — 0.31 log units higher, 9.05
- Cc1cc([C@H]2CC[C@H](Oc3ccc(S(=O)(=O)Nc4ccncn4)c(C)n3)[C@@H](N(C)C)C2)cc(C(F)(F)F)c1 [Example 58, 6-(((1S,2S,4S)-2-(dimethyl-amino)-4-(3-methyl-5-(trifluoromethyl)phenyl)-cyclohexyl)oxy)-2-methyl-N-(pyrimidin-4-yl)pyridine-3-sulfonamide] — 0.71 log units higher, 9.45
- Cc1nc(O[C@H]2CC[C@H](c3cc(F)cc(C(F)(F)F)c3)C[C@@H]2N(C)C)ccc1S(=O)(=O)Nc1ccncn1 [Example 42, 6-(((1S,2S,4S)-2-(Dimethylamino)-4-(3-fluoro-5-(trifluoromethyl)phenyl)cyclohexyl)oxy)-2-methyl-N-(pyrimidin-4-yl)pyridine-3-sulfonamide] — 0.45 log units higher, 9.19
- COc1cc(S(=O)(=O)Nc2ccncn2)cnc1O[C@H]1CC[C@H](c2cccc(C(F)(F)F)c2)C[C@@H]1N(C)C [Example 61, 6-(((1S,2S,4S)-2-(dimethyl-amino)-4-(3-(trifluoromethyl)-phenyl)cyclohexyl)oxy)-5-methoxy-N-(pyrimidin-4-yl)pyridine-3-sulfonamide formate] — 0.77 log units lower, 7.97
- Cc1nc(O[C@H]2CC[C@H](c3ccc(F)c(C(F)(F)F)c3)C[C@@H]2N(C)C)ccc1S(=O)(=O)Nc1ccncn1 [Example 45, 6-(((1S,2S,4S)-2-(Dimethylamino)-4-(4-fluoro-3-(trifluoromethyl)phenyl)cyclohexyl)oxy)-2-methyl-N-(pyrimidin-4-yl)pyridine-3-sulfonamide formate] — 0.59 log units higher, 9.33
- Cc1nc(O[C@H]2CC[C@H](c3cccc(C(F)(F)F)c3F)C[C@@H]2N(C)C)ccc1S(=O)(=O)Nc1ccncn1 [Example 46, 6-(((1S,2S,4S)-2-(Dimethylamino)-4-(2-fluoro-3-(trifluoromethyl)phenyl)cyclohexyl)oxy)-2-methyl-N-(pyrimidin-4-yl)pyridine-3-sulfonamide formate] — 0.30 log units higher, 9.04
- Cc1nc(O[C@H]2CC[C@H](c3cccc(C(F)(F)F)c3)C[C@@H]2N(C)C2CCC2)ccc1S(=O)(=O)Nc1ccncn1 [Example 35, 6-(((1S,2S,4S)-2-(Cyclobutyl(methyl)amino)-4-(3-(trifluoromethyl)phenyl)cyclohexyl)oxy)-2-methyl-N-(pyrimidin-4-yl)pyridine-3-sulfonamide] — 0.48 log units higher, 9.22
- CN(C)[C@H]1C[C@@H](c2cccc(C(F)(F)F)c2)CC[C@@H]1Nc1ccc(S(=O)(=O)Nc2ccncn2)nc1 [Example 5, 5-(((1S,2S,4S)-2-(Dimethylamino)-4-(3-(trifluoromethyl)phenyl)cyclohexyl)amino)-N-(pyrimidin-4-yl)pyridine-2-sulfonamide] — 0.66 log units lower, 8.08
- O=S(=O)(Nc1ccncn1)c1ccc(N[C@H]2CC[C@H](c3cccc(C(F)(F)F)c3)C[C@@H]2N2CCCC2)nc1 [Example 16, N-(pyrimidin-4-yl)-6-(((1S,2S,4S)-2-(pyrrolidin-1-yl)-4-(3-(trifluoromethyl)phenyl)cyclohexyl)-amino)pyridine-3-sulfonamide formate] — within 0.2 log units, 8.55
- CN(C)[C@H]1C[C@@H](c2cccc(C(F)(F)F)c2)CC[C@@H]1Oc1ncc(S(=O)(=O)Nc2ccncn2)cc1F [Example 21, 6-(((1S,2S,4S)-2-(Dimethylamino)-4-(3-(trifluoromethyl)phenyl)cyclohexyl)oxy)-5-fluoro-N-(pyrimidin-4-yl)pyridine-3-sulfonamide] — 0.63 log units higher, 9.37
- CN(C)[C@H]1C[C@@H](c2cc(C(F)(F)F)ccc2F)CC[C@@H]1Oc1ccc(S(=O)(=O)Nc2ccncn2)c(Cl)n1 [Example 44, 2-Chloro-6-(((1S,2S,4S)-2-(dimethylamino)-4-(2-fluoro-5-(trifluoromethyl)phenyl)-cyclohexyl)oxy)-N-(pyrimidin-4-yl)pyridine-3-sulfonamide formate] — the same, 8.74
- CN(C)[C@H]1C[C@@H](c2cccc(OC(F)(F)F)c2)CC[C@@H]1Oc1ccc(S(=O)(=O)Nc2ccncn2)cn1 [Example 25, 6-(((1S,2S,4S)-2-(dimethylamino)-4-(3-(trifluoromethoxy)phenyl)cyclohexyl)oxy)-N-(pyrimidin-4-yl)pyridine-3-sulfonamide formate] — 0.29 log units lower, 8.45
- Cc1cc(O[C@H]2CC[C@H](c3cccc(C(F)(F)F)c3)C[C@@H]2N(C)C)ncc1S(=O)(=O)Nc1ccncn1 [Example 32, 6-(((1S,2S,4S)-2-(Dimethylamino)-4-(3-(trifluoromethyl)phenyl)cyclohexyl)oxy)-4-methyl-N-(pyrimidin-4-yl)pyridine-3-sulfonamide] — 1.31 log units lower, 7.43
- CN(C)[C@H]1C[C@@H](c2cccc(C(F)(F)F)c2)CC[C@@H]1Oc1ncc(S(=O)(=O)Nc2ccncn2)cc1Br [Example 20, 5-bromo-6-(((1S,2S,4S)-2-(dimethylamino)-4-(3-(trifluoromethyl)phenyl)cyclohexyl)oxy)-N-(pyrimidin-4-yl)pyridine-3-sulfonamide formate] — 0.31 log units higher, 9.05
- Cc1nc(O[C@H]2CC[C@H](c3cc(Cl)ccc3Cl)C[C@@H]2N(C)C)ccc1S(=O)(=O)Nc1ccncn1 [Example 39, 6-(((1S,2S,4S)-4-(2,5-dichlorophenyl)-2-(dimethylamino)cyclohexyl)oxy)-2-methyl-N-(pyrimidin-4-yl)pyridine-3-sulfonamide formate] — 0.45 log units higher, 9.19
- Cc1nc(O[C@H]2CC[C@H](c3cc(C(F)(F)F)ccc3Cl)C[C@@H]2N(C)C)ccc1S(=O)(=O)Nc1ccncn1 [Example 38, 6-(((1S,2S,4S)-4-(2-chloro-5-(trifluoromethyl)phenyl)-2-(dimethylamino)cyclohexyl)oxy)-2-methyl-N-(pyrimidin-4-yl)pyridine-3-sulfonamide] — 0.65 log units higher, 9.39
- Cc1nc(O[C@H]2CC[C@H](c3cccc(CC(F)(F)F)c3)C[C@@H]2N(C)C)ccc1S(=O)(=O)Nc1ccncn1 [Example 59, 6-(((1S,2S,4S)-2-(dimethyl-amino)-4-(3-(2,2,2-trifluoro-ethyl)phenyl)-cyclohexyl)-oxy)-2-methyl-N-(pyrimidin-4-yl)pyridine-3-sulfonamide] — 0.29 log units higher, 9.03
- Cc1nc(O[C@H]2CC[C@H](c3cccc(C(F)(F)F)c3)C[C@@H]2N(C)C)ccc1S(=O)(=O)Nc1ccncn1 [Example 23, 6-(((1S,2S,4S)-2-(Dimethylamino)-4-(3-(trifluoromethyl)phenyl)cyclohexyl)oxy)-2-methyl-N-(pyrimidin-4-yl)pyridine-3-sulfonamide formate] — 0.38 log units higher, 9.12
- O=S(=O)(Nc1ccncn1)c1ccc(O[C@H]2CC[C@H](c3cccc(C(F)(F)F)c3)C[C@@H]2N2CCCCC2)nc1 [Example 26, 6-(((1S,2S,4S)-2-(piperidin-1-yl)-4-(3-(trifluoromethyl)phenyl)cyclohexyl)oxy)-N-(pyrimidin-4-yl)pyridine-3-sulfonamide] — 0.20 log units higher, 8.94
